Key:
Bcl-2 [1] = target: T1, Bcl-2 (Homo sapiens (Human), UniProt P10415)
Bcl-2 [2] = target: T1, Bcl-2; experiment: biochemical; conditions: Biochemical activity (IC50, nM) BCL-2

SMILES: O=C(NS(=O)(=O)c1ccc(NCC2CCOCC2)c([N+](=O)[O-])c1)c1ccc(N2CC3(CN(CC4CCCN4c4ccccc4C4CC4)C3)C2)cc1Oc1cnc2[nH]ccc2c1 (stereo not drawn) [Example F114, 2-((1H-pyrrolo[2,3-b]pyridin-5-yl)oxy)-4-(6-((1-(2-cyclopropylphenyl)pyrrolidin-2-yl)methyl)-2,6-diazaspiro[3.3]heptan-2-yl)-N-((3-nitro-4-(((tetrahydro-2H-pyran-4-yl)methyl)amino)phenyl)sulfonyl)benzamide]
- folds less potent than its analog in biochemical assay (Bcl-2 [1]): 28 to 80 folds
- folds less potent than its analog in cellular assay (RS4;11 cells): 15 to 22 folds

SMILES: O=C(NS(=O)(=O)c1ccc(NCC2CCOCC2)c([N+](=O)[O-])c1)c1ccc(N2CCC3(CCC(N4CCC[C@H]4c4ccccc4C4CC4)CC3)C2)cc1Oc1cnc2[nH]ccc2c1 (stereo partly drawn) [Example F42, (S)-2-((1H-pyrrolo[2,3-b]pyridin-5-yl)oxy)-4-(8-(2-(2-cyclopropylphenyl)pyrrolidin-1-yl)-2-azaspiro[4.5]decan-2-yl)-N-((3-nitro-4-(((tetrahydro-2H-pyran-4-yl)methyl)amino)phenyl)sulfonyl)benzamide]
- IC50 (Bcl-2 [2]): 44 nM
